Reference: ChEMBL document CHEMBL5584231, “Rational design of a new short anticancer peptide with good potential for cancer treatment” (Eur J Med Chem, 2024)
Residues, ends and D or L forms follow the SMILES beside them.

Tests used:
[1] = Therapeutic index, ratio of HC10 for mouse RBC to IC50 for cytotoxicity against human MCF7 cells; type: toxicity, cell-based; details: mouse RBC and MCF7 cells, read-out: TI
[2] = Therapeutic index, ratio of HC10 for mouse RBC to IC50 for cytotoxicity against RG cells (unknown origin); type: toxicity, cell-based; details: mouse RBC and RG cells, read-out: TI
[3] = Cytotoxicity against HK-2 cells assessed as inhibition of cell growth incubated for 1 hr by MTT assay; type: toxicity, cell-based; details: human
[4] = system: MCF7; assay: Cytotoxicity against human MCF7 cells assessed as inhibition of cell growth incubated for 1 hr by MTT assay; type: functional, cell-based; details: MCF7, 1 h
[5] = Therapeutic index, ratio of HC10 for mouse RBC to IC50 for cytotoxicity against human HeLa cells; type: toxicity, cell-based; details: mouse RBC and HeLa cells, read-out: TI
[6] = system: HeLa; assay: Cytotoxicity against human HeLa cells assessed as inhibition of cell growth incubated for 1 hr by MTT assay; type: functional, cell-based
[7] = Cytotoxicity against RG cells (unknown origin) assessed as inhibition of cell growth incubated for 1 hr by MTT assay; type: functional, cell-based
[8] = system: A549; assay: Cytotoxicity against human A549 cells assessed as inhibition of cell growth incubated for 1 hr by MTT assay; type: functional, cell-based; details: A549, 1 h
[9] = Therapeutic index, ratio of HC10 for mouse RBC to IC50 for cytotoxicity against human A549 cells; type: toxicity, cell-based; details: mouse RBC and A549 cells, read-out: TI

SMILES | selectivity ratio [1] | selectivity ratio [2] | IC50 at 1 h [3] [µM] | IC50 [4] [µM] | selectivity ratio [5] | IC50 [6] [µM] | IC50 [7] [µM] | IC50 [8] [µM] | selectivity ratio [9]
CC(C)C[C@H](NC(=O)[C@H](CC(C)C)NC(=O)[C@H](CCCCN)NC(=O)[C@H](CCCCN)NC(=O)[C@H](CC(C)C)NC(=O)[C@H](CC(C)C)NC(=O)[C@H](CCCCN)NC(=O)[C@H](CCCCN)NC(=O)[C@H](CC(C)C)NC(=O)[C@H](CC(C)C)NC(=O)[C@H](CCCCN)NC(=O)[C@H](CCCCN)NC(=O)[C@H](CCC(=O)O)NC(=O)[C@@H](N)CC(C)C)C(N)=O (H-LEKKLLKKLLKKLL-NH2) | 2.33 | 2.58 | 59.2 | 51.2 | 4.62 | 25.8 | 46.4 | 49.4 | 2.42
CC(C)C[C@H](NC(=O)[C@H](CC(C)C)NC(=O)[C@H](CCCCN)NC(=O)[C@H](CCCCN)NC(=O)[C@H](CC(C)C)NC(=O)[C@H](CC(C)C)NC(=O)[C@H](CCCCN)NC(=O)[C@H](CCCCN)NC(=O)[C@H](CC(C)C)NC(=O)[C@H](CC(C)C)NC(=O)[C@H](CCCCN)NC(=O)[C@H](CCC(=O)O)NC(=O)[C@H](CC(C)C)NC(=O)[C@@H](N)CC(C)C)C(N)=O (H-LLEKLLKKLLKKLL-NH2) | 0.595 | 0.563 | 11 | 10.5 | 0.883 | 7.05 | 11.1 | 8.11 | 0.767
CC(C)C[C@H](NC(=O)[C@H](CC(C)C)NC(=O)[C@H](CCCCN)NC(=O)[C@H](CCCCN)NC(=O)[C@H](CC(C)C)NC(=O)[C@H](CC(C)C)NC(=O)[C@H](CCCCN)NC(=O)[C@H](CCCCN)NC(=O)[C@H](CC(C)C)NC(=O)[C@H](CC(C)C)NC(=O)[C@H](CCC(=O)O)NC(=O)[C@H](CCCCN)NC(=O)[C@H](CC(C)C)NC(=O)[C@@H](N)CC(C)C)C(N)=O (H-LLKELLKKLLKKLL-NH2) | 1.24 | 1.26 | 21.4 | 18.5 | 1.78 | 12.9 | 18.2 | 23.8 | 0.966
CC(C)C[C@H](NC(=O)[C@H](CC(C)C)NC(=O)[C@H](CCCCN)NC(=O)[C@H](CCCCN)NC(=O)[C@H](CC(C)C)NC(=O)[C@H](CC(C)C)NC(=O)[C@H](CCCCN)NC(=O)[C@H](CCCCN)NC(=O)[C@H](CC(C)C)NC(=O)[C@H](CCC(=O)O)NC(=O)[C@H](CCCCN)NC(=O)[C@H](CCCCN)NC(=O)[C@H](CC(C)C)NC(=O)[C@@H](N)CC(C)C)C(N)=O (H-LLKKELKKLLKKLL-NH2) | 8.02 | 7.14 | 37.3 | 21.4 | 12 | 14.4 | 24.1 | 17.3 | 9.94
CC(C)C[C@H](NC(=O)[C@H](CC(C)C)NC(=O)[C@H](CCCCN)NC(=O)[C@H](CCCCN)NC(=O)[C@H](CC(C)C)NC(=O)[C@H](CC(C)C)NC(=O)[C@H](CCCCN)NC(=O)[C@H](CCCCN)NC(=O)[C@H](CCC(=O)O)NC(=O)[C@H](CC(C)C)NC(=O)[C@H](CCCCN)NC(=O)[C@H](CCCCN)NC(=O)[C@H](CC(C)C)NC(=O)[C@@H](N)CC(C)C)C(N)=O (H-LLKKLEKKLLKKLL-NH2) | 2.47 | 1.2 | 264 | 202 | 4.8 | 104 | 418 | 530 | 0.943
CC(C)C[C@H](NC(=O)[C@H](CC(C)C)NC(=O)[C@H](CCCCN)NC(=O)[C@H](CCCCN)NC(=O)[C@H](CC(C)C)NC(=O)[C@H](CC(C)C)NC(=O)[C@H](CCCCN)NC(=O)[C@H](CCC(=O)O)NC(=O)[C@H](CC(C)C)NC(=O)[C@H](CC(C)C)NC(=O)[C@H](CCCCN)NC(=O)[C@H](CCCCN)NC(=O)[C@H](CC(C)C)NC(=O)[C@@H](N)CC(C)C)C(N)=O (H-LLKKLLEKLLKKLL-NH2) | 2.1 | 2.18 | 4.9 | 4.67 | 3.41 | 2.87 | 4.5 | 3.93 | 2.49
CC(C)C[C@H](NC(=O)[C@H](CC(C)C)NC(=O)[C@H](CCCCN)NC(=O)[C@H](CCCCN)NC(=O)[C@H](CC(C)C)NC(=O)[C@H](CC(C)C)NC(=O)[C@H](CCC(=O)O)NC(=O)[C@H](CCCCN)NC(=O)[C@H](CC(C)C)NC(=O)[C@H](CC(C)C)NC(=O)[C@H](CCCCN)NC(=O)[C@H](CCCCN)NC(=O)[C@H](CC(C)C)NC(=O)[C@@H](N)CC(C)C)C(N)=O (H-LLKKLLKELLKKLL-NH2) | 1.32 | 1.1 | 3.8 | 3.95 | 1.15 | 4.54 | 4.74 | 3.75 | 1.39
CC(C)C[C@H](NC(=O)[C@H](CC(C)C)NC(=O)[C@H](CCCCN)NC(=O)[C@H](CCCCN)NC(=O)[C@H](CC(C)C)NC(=O)[C@H](CCC(=O)O)NC(=O)[C@H](CCCCN)NC(=O)[C@H](CCCCN)NC(=O)[C@H](CC(C)C)NC(=O)[C@H](CC(C)C)NC(=O)[C@H](CCCCN)NC(=O)[C@H](CCCCN)NC(=O)[C@H](CC(C)C)NC(=O)[C@@H](N)CC(C)C)C(N)=O (H-LLKKLLKKELKKLL-NH2) | 2.76 | 2.3 | 146 | 181 | 4.18 | 120 | 217 | 482 | 1.04
CC(C)C[C@H](NC(=O)[C@H](CC(C)C)NC(=O)[C@H](CCCCN)NC(=O)[C@H](CCCCN)NC(=O)[C@H](CCC(=O)O)NC(=O)[C@H](CC(C)C)NC(=O)[C@H](CCCCN)NC(=O)[C@H](CCCCN)NC(=O)[C@H](CC(C)C)NC(=O)[C@H](CC(C)C)NC(=O)[C@H](CCCCN)NC(=O)[C@H](CCCCN)NC(=O)[C@H](CC(C)C)NC(=O)[C@@H](N)CC(C)C)C(N)=O (H-LLKKLLKKLEKKLL-NH2) | 5.15 | 6.34 | 92.5 | 97.1 | 11.4 | 43.7 | 78.9 | 87.1 | 5.74
CC(C)C[C@H](NC(=O)[C@H](CC(C)C)NC(=O)[C@H](CCCCN)NC(=O)[C@H](CCC(=O)O)NC(=O)[C@H](CC(C)C)NC(=O)[C@H](CC(C)C)NC(=O)[C@H](CCCCN)NC(=O)[C@H](CCCCN)NC(=O)[C@H](CC(C)C)NC(=O)[C@H](CC(C)C)NC(=O)[C@H](CCCCN)NC(=O)[C@H](CCCCN)NC(=O)[C@H](CC(C)C)NC(=O)[C@@H](N)CC(C)C)C(N)=O (H-LLKKLLKKLLEKLL-NH2) | 2.28 | 3.04 | 4.49 | 7.66 | 3.15 | 5.53 | 5.73 | 5.01 | 3.48
